# According to the NIST ThermoML archive (doi:10.1016/j.tca.2016.08.008):
# Numbers after ± are expanded uncertainties.
smiles,measurement,setting,value
O=P([O-])([O-])[O-].[Tb+3] [terbium orthophosphate],molar entropy,"7 K, 101.33 kPa, Metastable crystal, Vacuum adiabatic calorimetry",0.0744 ± 0.013 J/K/mol
same,molar entropy,"8 K, 101.33 kPa, Metastable crystal, Vacuum adiabatic calorimetry",0.1113 ± 0.015 J/K/mol
same,molar entropy,"9 K, 101.33 kPa, Metastable crystal, Vacuum adiabatic calorimetry",0.1586 ± 0.018 J/K/mol
same,molar entropy,"10 K, 101.33 kPa, Metastable crystal, Vacuum adiabatic calorimetry",0.2174 ± 0.022 J/K/mol
same,molar entropy,"12 K, 101.33 kPa, Metastable crystal, Vacuum adiabatic calorimetry",0.3747 ± 0.035 J/K/mol
same,molar entropy,"14 K, 101.33 kPa, Metastable crystal, Vacuum adiabatic calorimetry",0.5915 ± 0.053 J/K/mol
same,molar entropy,"16 K, 101.33 kPa, Metastable crystal, Vacuum adiabatic calorimetry",0.8724 ± 0.076 J/K/mol
same,molar entropy,"18 K, 101.33 kPa, Metastable crystal, Vacuum adiabatic calorimetry",1.219 ± 0.11 J/K/mol
same,molar entropy,"20 K, 101.33 kPa, Metastable crystal, Vacuum adiabatic calorimetry",1.627 ± 0.14 J/K/mol
same,molar entropy,"25 K, 101.33 kPa, Metastable crystal, Vacuum adiabatic calorimetry",2.889 ± 0.13 J/K/mol
same,molar entropy,"30 K, 101.33 kPa, Metastable crystal, Vacuum adiabatic calorimetry",4.414 ± 0.2 J/K/mol
same,molar entropy,"35 K, 101.33 kPa, Metastable crystal, Vacuum adiabatic calorimetry",6.129 ± 0.28 J/K/mol
same,molar entropy,"40 K, 101.33 kPa, Metastable crystal, Vacuum adiabatic calorimetry",7.99 ± 0.36 J/K/mol
same,molar entropy,"45 K, 101.33 kPa, Metastable crystal, Vacuum adiabatic calorimetry",9.975 ± 0.34 J/K/mol
same,molar entropy,"50 K, 101.33 kPa, Metastable crystal, Vacuum adiabatic calorimetry",12.07 ± 0.4 J/K/mol
same,molar entropy,"55 K, 101.33 kPa, Metastable crystal, Vacuum adiabatic calorimetry",14.26 ± 0.48 J/K/mol
same,molar entropy,"60 K, 101.33 kPa, Metastable crystal, Vacuum adiabatic calorimetry",16.53 ± 0.55 J/K/mol
same,molar entropy,"70 K, 101.33 kPa, Metastable crystal, Vacuum adiabatic calorimetry",21.26 ± 0.71 J/K/mol
same,molar entropy,"80 K, 101.33 kPa, Metastable crystal, Vacuum adiabatic calorimetry",26.15 ± 0.87 J/K/mol
same,molar entropy,"90 K, 101.33 kPa, Metastable crystal, Vacuum adiabatic calorimetry",31.12 ± 1.1 J/K/mol
same,molar entropy,"100 K, 101.33 kPa, Metastable crystal, Vacuum adiabatic calorimetry",36.12 ± 1.2 J/K/mol
same,molar entropy,"110 K, 101.33 kPa, Metastable crystal, Vacuum adiabatic calorimetry",41.09 ± 1.4 J/K/mol
same,molar entropy,"120 K, 101.33 kPa, Metastable crystal, Vacuum adiabatic calorimetry",46.02 ± 1.5 J/K/mol
same,molar entropy,"130 K, 101.33 kPa, Metastable crystal, Vacuum adiabatic calorimetry",50.9 ± 1.7 J/K/mol
same,molar entropy,"140 K, 101.33 kPa, Metastable crystal, Vacuum adiabatic calorimetry",55.72 ± 1.9 J/K/mol
same,molar entropy,"150 K, 101.33 kPa, Metastable crystal, Vacuum adiabatic calorimetry",60.46 ± 2 J/K/mol
same,molar entropy,"160 K, 101.33 kPa, Metastable crystal, Vacuum adiabatic calorimetry",65.13 ± 2.2 J/K/mol
same,molar entropy,"170 K, 101.33 kPa, Metastable crystal, Vacuum adiabatic calorimetry",69.73 ± 2.3 J/K/mol
same,molar entropy,"180 K, 101.33 kPa, Metastable crystal, Vacuum adiabatic calorimetry",74.26 ± 2.5 J/K/mol
same,molar entropy,"190 K, 101.33 kPa, Metastable crystal, Vacuum adiabatic calorimetry",78.71 ± 2.6 J/K/mol
same,molar entropy,"200 K, 101.33 kPa, Metastable crystal, Vacuum adiabatic calorimetry",83.09 ± 2.8 J/K/mol
same,molar entropy,"210 K, 101.33 kPa, Metastable crystal, Vacuum adiabatic calorimetry",87.39 ± 2.9 J/K/mol
same,molar entropy,"220 K, 101.33 kPa, Metastable crystal, Vacuum adiabatic calorimetry",91.63 ± 3 J/K/mol
same,molar entropy,"230 K, 101.33 kPa, Metastable crystal, Vacuum adiabatic calorimetry",95.79 ± 3.2 J/K/mol
same,molar entropy,"240 K, 101.33 kPa, Metastable crystal, Vacuum adiabatic calorimetry",99.88 ± 3.3 J/K/mol
same,molar entropy,"250 K, 101.33 kPa, Metastable crystal, Vacuum adiabatic calorimetry",103.9 ± 3.4 J/K/mol
same,molar entropy,"260 K, 101.33 kPa, Metastable crystal, Vacuum adiabatic calorimetry",107.9 ± 3.6 J/K/mol
same,molar entropy,"270 K, 101.33 kPa, Metastable crystal, Vacuum adiabatic calorimetry",111.7 ± 3.7 J/K/mol
same,molar entropy,"280 K, 101.33 kPa, Metastable crystal, Vacuum adiabatic calorimetry",115.6 ± 3.8 J/K/mol
same,molar entropy,"290 K, 101.33 kPa, Metastable crystal, Vacuum adiabatic calorimetry",119.3 ± 4 J/K/mol
same,mass density,"298 K, 101.33 kPa, Metastable crystal, X-ray diffraction",6088 ± 18 kg/m3
same,molar entropy,"300 K, 101.33 kPa, Metastable crystal, Vacuum adiabatic calorimetry",123 ± 4.1 J/K/mol
same,molar entropy,"310 K, 101.33 kPa, Metastable crystal, Vacuum adiabatic calorimetry",126.6 ± 4.2 J/K/mol
same,molar entropy,"320 K, 101.33 kPa, Metastable crystal, Vacuum adiabatic calorimetry",130.2 ± 4.3 J/K/mol
same,molar entropy,"325 K, 101.33 kPa, Metastable crystal, Vacuum adiabatic calorimetry",132 ± 4.4 J/K/mol
same,molar entropy,"340 K, 101.33 kPa, Metastable crystal, Small sample (50 mg) DSC",137.1 ± 11 J/K/mol
same,molar entropy,"360 K, 101.33 kPa, Metastable crystal, Small sample (50 mg) DSC",143.9 ± 11 J/K/mol
same,molar entropy,"380 K, 101.33 kPa, Metastable crystal, Small sample (50 mg) DSC",150.4 ± 12 J/K/mol
same,molar entropy,"400 K, 101.33 kPa, Metastable crystal, Small sample (50 mg) DSC",156.7 ± 12 J/K/mol
same,molar entropy,"420 K, 101.33 kPa, Metastable crystal, Small sample (50 mg) DSC",162.7 ± 13 J/K/mol
same,molar entropy,"440 K, 101.33 kPa, Metastable crystal, Small sample (50 mg) DSC",168.6 ± 13 J/K/mol
same,molar entropy,"460 K, 101.33 kPa, Metastable crystal, Small sample (50 mg) DSC",174.3 ± 14 J/K/mol
same,molar entropy,"480 K, 101.33 kPa, Metastable crystal, Small sample (50 mg) DSC",179.8 ± 14 J/K/mol
same,molar entropy,"500 K, 101.33 kPa, Metastable crystal, Small sample (50 mg) DSC",185.2 ± 14 J/K/mol
same,molar entropy,"520 K, 101.33 kPa, Metastable crystal, Small sample (50 mg) DSC",190.4 ± 15 J/K/mol
same,molar entropy,"540 K, 101.33 kPa, Metastable crystal, Small sample (50 mg) DSC",195.4 ± 15 J/K/mol
same,molar entropy,"560 K, 101.33 kPa, Metastable crystal, Small sample (50 mg) DSC",200.3 ± 16 J/K/mol
same,molar entropy,"580 K, 101.33 kPa, Metastable crystal, Small sample (50 mg) DSC",205.1 ± 16 J/K/mol
same,molar entropy,"600 K, 101.33 kPa, Metastable crystal, Small sample (50 mg) DSC",209.7 ± 16 J/K/mol
same,molar entropy,"620 K, 101.33 kPa, Metastable crystal, Small sample (50 mg) DSC",214.2 ± 17 J/K/mol
same,molar entropy,"640 K, 101.33 kPa, Metastable crystal, Small sample (50 mg) DSC",218.6 ± 17 J/K/mol
same,molar entropy,"660 K, 101.33 kPa, Metastable crystal, Small sample (50 mg) DSC",222.8 ± 17 J/K/mol
same,molar entropy,"680 K, 101.33 kPa, Metastable crystal, Small sample (50 mg) DSC",227 ± 18 J/K/mol
same,molar entropy,"700 K, 101.33 kPa, Metastable crystal, Small sample (50 mg) DSC",231 ± 18 J/K/mol
same,molar entropy,"720 K, 101.33 kPa, Metastable crystal, Small sample (50 mg) DSC",235 ± 18 J/K/mol
same,molar entropy,"740 K, 101.33 kPa, Metastable crystal, Small sample (50 mg) DSC",238.8 ± 19 J/K/mol
same,molar entropy,"760 K, 101.33 kPa, Metastable crystal, Small sample (50 mg) DSC",242.6 ± 19 J/K/mol
same,molar entropy,"780 K, 101.33 kPa, Metastable crystal, Small sample (50 mg) DSC",246.2 ± 19 J/K/mol
same,molar entropy,"800 K, 101.33 kPa, Metastable crystal, Small sample (50 mg) DSC",249.8 ± 20 J/K/mol
same,molar entropy,"820 K, 101.33 kPa, Metastable crystal, Small sample (50 mg) DSC",253.3 ± 20 J/K/mol
same,molar entropy,"840 K, 101.33 kPa, Metastable crystal, Small sample (50 mg) DSC",256.8 ± 20 J/K/mol
same,molar entropy,"860 K, 101.33 kPa, Metastable crystal, Small sample (50 mg) DSC",260.1 ± 20 J/K/mol
same,molar entropy,"880 K, 101.33 kPa, Metastable crystal, Small sample (50 mg) DSC",263.4 ± 20 J/K/mol
same,molar entropy,"900 K, 101.33 kPa, Metastable crystal, Small sample (50 mg) DSC",266.7 ± 21 J/K/mol
same,molar entropy,"920 K, 101.33 kPa, Metastable crystal, Small sample (50 mg) DSC",269.8 ± 21 J/K/mol
same,molar entropy,"940 K, 101.33 kPa, Metastable crystal, Small sample (50 mg) DSC",272.9 ± 21 J/K/mol
same,molar entropy,"960 K, 101.33 kPa, Metastable crystal, Small sample (50 mg) DSC",275.9 ± 22 J/K/mol
same,molar entropy,"980 K, 101.33 kPa, Metastable crystal, Small sample (50 mg) DSC",278.9 ± 22 J/K/mol
same,molar entropy,"1000 K, 101.33 kPa, Metastable crystal, Small sample (50 mg) DSC",281.8 ± 22 J/K/mol
same,molar entropy,"1009 K, 101.33 kPa, Metastable crystal, Small sample (50 mg) DSC",283.1 ± 22 J/K/mol
same,Triple point temperature,"Crystal 2, DSC",1643 ± 6 K
